Values of other authors in patent US6683169B2, “Nucleic acid encoding the human peptide histidine transporter 1 and methods of use thereof” (Rutgers, The State University of New Jersey, priority 2000, dated 2004).
Peptide text beside a SMILES is read from it.

Molecular target: T1, rPHT1 (Rattus norvegicus, UniProt O09014)
T1 construct: host or cells: Xenopus oocytes
Conditions: rPHT1 in Xenopus oocytes; for inhibition of histidine transport: inhibition studies

T1 sequence (O09014 whole entry): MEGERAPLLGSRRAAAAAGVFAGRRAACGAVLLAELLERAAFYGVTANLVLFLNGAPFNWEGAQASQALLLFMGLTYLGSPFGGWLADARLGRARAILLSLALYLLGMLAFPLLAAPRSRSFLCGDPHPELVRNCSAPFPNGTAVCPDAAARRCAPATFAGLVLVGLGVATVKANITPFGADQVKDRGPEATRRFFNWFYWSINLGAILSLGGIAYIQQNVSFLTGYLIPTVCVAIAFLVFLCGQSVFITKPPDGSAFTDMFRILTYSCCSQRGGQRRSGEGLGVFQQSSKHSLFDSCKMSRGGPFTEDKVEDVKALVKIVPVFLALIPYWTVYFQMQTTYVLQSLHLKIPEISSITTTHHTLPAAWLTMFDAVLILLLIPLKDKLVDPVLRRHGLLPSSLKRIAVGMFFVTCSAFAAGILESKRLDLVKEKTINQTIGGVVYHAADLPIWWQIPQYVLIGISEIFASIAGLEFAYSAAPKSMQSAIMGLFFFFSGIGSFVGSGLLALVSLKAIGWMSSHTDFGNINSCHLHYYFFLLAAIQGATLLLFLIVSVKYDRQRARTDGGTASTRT

| SMILES | inhibition of histidine transport | carnosine uptake versus water-injected control oocytes ([3H]carnosine) |
| --- | --- | --- |
| CC(C)C[C@H](NC(=O)CN)C(=O)O [Gly-Leu] | inhibited |  |
| NCC(=O)NCC(=O)O [Gly-Gly] (H-Gly-Gly-OH) | inhibited |  |
| NCCC(=O)N[C@@H](Cc1cnc[nH]1)C(=O)O [carnosine] | inhibited | significantly higher |
| NCC(=O)NCC(=O)NCC(=O)O [Gly-Gly-Gly] (H-Gly-Gly-Gly-OH) | inhibited |  |
